The results in this text go back to ChEMBL document CHEMBL5375955, “Discovery of New Fusobacterium nucleatum Inhibitors to Attenuate Migratory Capability of Colon Cancer Cells by the Drug Repositioning Strategy” (J Med Chem, 2023).

Values after ≈ are worked out from the molar mass of the structure shown. Active and inactive are the calls of the source.

Data set [1] relates to Fusobacterium nucleatum. Briefly: Antibacterial activity against Fusobacterium nucleatum ATCC 23726 assessed as bacterial growth inhibition incubated for 48 hrs by broth dilution susceptibility test. It counts as functional.
In data set [2] the test system is MC-38. In words: Antiproliferative activity against mouse MC-38 cells assessed as inhibition of cell growth incubated for 48 hrs by CCK-8 assay. It counts as functional, cell-based. The settings on record: MC-38, 48 h.
For data set [3], the system named is HCT-116. Briefly: Antiproliferative activity against human HCT-116 cells assessed as inhibition of cell growth incubated for 48 hrs by CCK-8 assay. In kind it is functional, cell-based. The settings on record: HCT-116, 48 h. On the technique in general: Tetrazolium dyes change colour on reduction, which living cells bring about.
Data set [4] can be described thus: Cytotoxicity against HUVEC cells assessed as inhibition of cell growth incubated for 48 hrs by CCK-8 assay. In kind it is toxicity, cell-based. The settings on record: human.
A short description of data set [5]: Cytotoxicity against human L02 cells assessed as inhibition of cell growth incubated for 48 hrs by CCK-8 assay. It counts as toxicity, cell-based.
The test system of data set [6] is Fusobacterium nucleatum. In words: Antibacterial activity against Fusobacterium nucleatum ATCC 23726 assessed as bacterial growth inhibition at 8 ug/ml incubated for 72 hrs by turbidimeter analysis. It counts as functional, organism-based. The settings on record: dose 8.0 µg/ml.
In data set [7] the test system is Fusobacterium nucleatum. Briefly: Antibacterial activity against Fusobacterium nucleatum ATCC 23726 assessed as bacterial growth inhibition incubated for 72 hrs by turbidimeter analysis. In kind it is functional, organism-based.
Data set [8] deals with Escherichia coli. Briefly: Antibacterial activity against Escherichia coli […] assessed as bacterial growth inhibition incubated for 48 hrs by broth dilution susceptibility test. In kind it is functional. On the technique in general: Broth dilution looks for growth in wells or tubes with falling amounts of substance.
Data set [9] concerns Enterococcus faecalis. In words: Antibacterial activity against Enterococcus faecalis ATCC 29212 assessed as bacterial growth inhibition incubated for 48 hrs by broth dilution susceptibility test. In kind it is functional.
Data set [10] has as its system Staphylococcus aureus. Briefly: Antibacterial activity against Staphylococcus aureus ATCC 6538 assessed as bacterial growth inhibition incubated for 48 hrs by broth dilution susceptibility test. In kind it is functional.
The test system of data set [11] is Peptostreptococcus anaerobius. In words: Antibacterial activity against Peptostreptococcus anaerobius ATCC 27337 assessed as bacterial growth inhibition incubated for 48 hrs by broth dilution susceptibility test. It counts as functional.
Data set [12] has as its system Akkermansia muciniphila. Briefly: Antibacterial activity against Akkermansia muciniphila ATCC BAA-835 assessed as bacterial growth inhibition incubated for 48 hrs by broth dilution susceptibility test. In kind it is functional.
Data set [13] relates to Salmonella enterica subsp. enterica serovar Paratyphi B. In words: Antibacterial activity against Salmonella paratyphi B ATCC CMCC50094 assessed as bacterial growth inhibition incubated for 48 hrs by broth dilution susceptibility test. In kind it is functional.
The subject of data set [14] is Shigella flexneri. Briefly: Antibacterial activity against Shigella flexneri ATCC 12022 assessed as bacterial growth inhibition incubated for 48 hrs by broth dilution susceptibility test. In kind it is functional.
The subject of data set [15] is Lactobacillus acidophilus. Briefly: Antibacterial activity against Lactobacillus acidophilus ATCC CGMCC 1.577 assessed as bacterial growth inhibition incubated for 48 hrs by broth dilution susceptibility test. It counts as functional.
Data set [16] relates to Fusobacterium nucleatum. In words: Antibacterial activity against Fusobacterium nucleatum ATCC 23726 assessed as bacterial growth inhibition at 4 ug/ml incubated for 72 hrs by turbidimeter analysis. The settings on record: dose 4.0 µg/ml. It counts as functional, organism-based.
Data set [17] relates to Fusobacterium nucleatum. Briefly: Antibacterial activity against Fusobacterium nucleatum ATCC 23726 assessed as bacterial growth inhibition at 8 ug/ml incubated for 72 hrs by turbidimeter analysis relative to control. It counts as functional. On the set-up: scale not given: the % may be the effect or the level left. The settings on record: dose 8 µg/ml.
In data set [18] the test system is Fusobacterium nucleatum. In words: Antibiofilm activity against Fusobacterium nucleatum ATCC 23726 assessed as inhibition of biofilm formation incubated for 48 hrs by crystal violet staining based assay. It counts as functional, organism-based. The settings on record: dose 0.5-16 µg/ml.
Data set [19] concerns Fusobacterium nucleatum. In words: Antibiofilm activity against Fusobacterium nucleatum ATCC 23726 assessed as inhibition of biofilm formation at 1 ug/ml incubated for 48 hrs by crystal violet staining based assay relative to control. It counts as functional.
Data set [20] deals with Fusobacterium nucleatum. In words: Antibacterial activity against Fusobacterium nucleatum ATCC 23726 assessed as downregulation of NTR gene expression incubated for 48 hrs by RT-qPCR analysis. It counts as functional, organism-based.
Data set [21] concerns Fusobacterium nucleatum. Briefly: Antibiofilm activity against Fusobacterium nucleatum ATCC 23726 assessed as downregulation of tnaA gene expression measured after 48 hrs by RT-qPCR analysis. In kind it is functional, organism-based. (In qPCR the cycle at which signal appears reflects the starting amount.)
The test system of data set [22] is L02. In words: Downregulation of HPPD gene expression in human L02 cells at 10 to 50 uM incubated for 48 hrs by RT-qPCR analysis. It counts as functional, cell-based. The settings on record: dose 10-50 µM.
A short description of data set [23]: Acute toxicity in ICR mouse assessed as death rate at 1250 to 2592 mg/kg, po measured after 7 days. It counts as organism-based. The settings on record: in vivo, dose 1250-2592 mg/kg, time 7 day, read-out: Activity.
Data set [24] can be described thus: Acute toxicity in po dosed ICR mouse assessed as animal death measured after 7 days. The settings on record: in vivo, time 7 day. It counts as organism-based.
Data set [25] in a line: Acute toxicity in po dosed ICR mouse assessed as heart damage at 1500 mg/kg, po measured after 7 days by H and E staining based analysis. It counts as organism-based. The settings on record: in vivo, 168 h, time 7 day.
Data set [26] is described as follows: Acute toxicity in po dosed ICR mouse assessed as liver damage at 1500 mg/kg, po measured after 7 days by H and E staining based analysis. It counts as organism-based. The settings on record: in vivo, 168 h, time 7 day.
Data set [27] in a line: Acute toxicity in po dosed ICR mouse assessed as spleen damage at 1500 mg/kg, po measured after 7 days by H and E staining based analysis. In kind it is organism-based. The settings on record: in vivo, 168 h, time 7 day.
A short description of data set [28]: Acute toxicity in po dosed ICR mouse assessed as lung damage at 1500 mg/kg, po measured after 7 days by H and E staining based analysis. In kind it is organism-based. The settings on record: in vivo, 168 h, time 7 day.
The nature of data set [29]: Acute toxicity in po dosed ICR mouse assessed as kidney damage at 1500 mg/kg, po measured after 7 days by H and E staining based analysis. In kind it is organism-based. The settings on record: in vivo, 168 h, time 7 day.
Data set [30] in a line: Metabolic stability in mouse liver microsomes assessed as half life at 1 uM incubated for 45 mins in presence of NADPH by LC-MS/MS analysis. In kind it is ADME, Microsome.
Data set [31] in a line: Drug metabolism assessed as NTR(unknown origin)-mediated metabolism at 10 mM incubated for 2 hrs in presence of NADH by LC-MS analysis. It counts as ADME. The settings on record: bacteria, 10000 µM.

With `O=C(OCc1ccc([N+](=O)[O-])o1)c1ccc([N+](=O)[O-])c(Br)c1`, the MIC50 in [1] was 4 µg/mL (≈ 10.8 µM); in data set [8] it was > 64 µg/mL; in data set [9] it was > 64 µg/mL; in [10], > 64 µg/mL; in [11] it was > 64 µg/mL; in [12], > 64 µg/mL. Further, the MIC50 in data set [13] was 64 µg/mL (≈ 172 µM); in [14], > 64 µg/mL; in data set [15], 64 µg/mL (≈ 172 µM). The half-inhibitory concentration (IC50) was found to be 42 µM in data set [2] and 66 µM in [3]. Also, the IC50 at 48 h worked out at 31 µM in data set [4] and 175 µM in [5]. For the same molecule, the outcome in [6] was Active. In [7], the Activity entry was “Dose-Dependent Effect”.
As to `O=C(NCc1ccccc1C(F)(F)F)c1ccc(C(F)(F)F)cc1[N+](=O)[O-]`, the MIC50 in [1] is > 64 µg/mL.
In the case of `Cc1cc(NC(=O)c2ccc(C(F)(F)F)cc2[N+](=O)[O-])on1`, the MIC50 in [1] is > 64 µg/mL.
On to `Cc1ncc([N+](=O)[O-])n1C` [DIMETRIDAZOLE], for which the MIC50 in data set [1] amounted to 1 µg/mL (≈ 7.09 µM).
Regarding `CS(=O)(=O)c1ccc(C(=O)C2C(=O)CCCC2=O)c(Cl)c1` [SULCOTRIONE], the MIC50 in data set [1] was > 64 µg/mL.
Turning to `Cn1c([N+](=O)[O-])cnc1COC(N)=O` [RONIDAZOLE], the MIC50 in data set [1] amounted to 2 µg/mL (≈ 9.99 µM).
Still for that read-out and setting: the figure for `Cl.Cl.Cl.O[C@@H](COc1cccc2ncccc12)CN1CCN([C@@H]2c3ccccc3[C@@H]3[C@H](c4ccccc42)C3(F)F)CC1` [ZOSUQUIDAR TRIHYDROCHLORIDE] is 16 µg/mL.
`O=C(OCc1ccc([N+](=O)[O-])o1)c1ccc(C(F)(F)F)cc1[N+](=O)[O-]`: the MIC50 was 4 µg/mL (≈ 11.1 µM) in data set [1]; > 64 µg/mL in data set [8]; > 64 µg/mL in [9]; > 64 µg/mL in data set [10]; > 64 µg/mL in data set [11]; > 64 µg/mL in data set [12]. Further, the MIC50 in data set [13] was 64 µg/mL (≈ 178 µM); in data set [14] it was > 64 µg/mL; in data set [15] it was 64 µg/mL (≈ 178 µM). For the same molecule, the 50% inhibitory concentration (IC50) in data set [2] turned out to be 49 µM; in data set [3], 84 µM. The IC50 at 48 h was 40 µM in data set [4] and 81 µM in data set [5]. Besides, the result in data set [6] was Active. In addition, in data set [7], the Activity entry is “Dose-Dependent Effect”.
As to `O=[N+]([O-])c1ccc(COc2ccc([N+](=O)[O-])c(Br)c2)o1`, the MIC50 in data set [1] was 2 µg/mL (≈ 5.83 µM); in data set [8], 16 µg/mL (≈ 46.6 µM); in data set [9], 64 µg/mL (≈ 187 µM); in data set [10], 64 µg/mL (≈ 187 µM); in data set [11], 32 µg/mL (≈ 93.3 µM); in data set [12], > 64 µg/mL. Moreover, the MIC50 in [13] is > 64 µg/mL; in data set [14], > 64 µg/mL; in data set [15], 64 µg/mL (≈ 187 µM). In addition, the MIC90 in data set [1] is 2 µg/mL (≈ 5.83 µM). Further, the half-inhibitory concentration (IC50) in data set [2] was found to be 26 µM; in data set [3] it was 62 µM. Further, the half-maximal inhibitory concentration (IC50) at 48 h turned out to be 16 µM in [4] and 60 µM in [5]. Further, the result in data set [16] and in data set [22] was Active. Besides, the Activity result in [7] was “Dose-Dependent Effect”; in [17] it was ~100%; in data set [20], “Dose-Dependent Effect”; in data set [21], “Dose-Dependent Effect”; in data set [25] it was “Non-Toxic”; in [26] it was “Non-Toxic”. Besides, the Activity result in data set [27], in data set [28] and in data set [29] was “Non-Toxic” throughout. In addition, the inhibition result in data set [18] was “Dose-Dependent Effect”. Further, the inhibition at 1 µg/mL in data set [19] was > 50%. Further, in data set [23], the mortality at 168 h amounted to 0%. Further, the LD50 at 168 h in [24] is > 2590 mg/kg. The half-life at 1 µM in [30] came out at 21.3 min. Further, the Drug metabolism entry in [31] is given as “Metabolite_Detected”.
As to `OC1(c2ccc(Cl)c(C(F)(F)F)c2)CCN(CCCC(c2ccc(F)cc2)c2ccc(F)cc2)CC1` [PENFLURIDOL], the MIC50 in data set [1] was 8 µg/mL (≈ 15.3 µM).
As for `O=[N+]([O-])c1ccc(COc2ccc(C(F)(F)F)cc2[N+](=O)[O-])o1`, the MIC50 in data set [1] turned out to be 4 µg/mL (≈ 12 µM).
On to `CSc1ccc(OCc2ncc([N+](=O)[O-])n2C)cc1` [FEXINIDAZOLE], for which, in [1], the MIC50 amounted to 8 µg/mL (≈ 28.6 µM).
Still for that read-out and setting: the figure for `O=C(Nc1ccc([N+](=O)[O-])c(Cl)c1)c1ccc([N+](=O)[O-])cc1F` is > 64 µg/mL; for `CC(C)(C)c1ccc(C(O)CCCN2CCC(C(O)(c3ccccc3)c3ccccc3)CC2)cc1` (centres undefined) [TERFENADINE] it is 16 µg/mL (≈ 33.9 µM).
Same read-out and setting: the figure for `O=C(CCc1ccc([N+](=O)[O-])cc1)Nc1ccon1` is > 64 µg/mL; for `COC(=O)OCc1ccc(NC(=O)c2ccc(C(F)(F)F)cc2[N+](=O)[O-])cc1` it is > 64 µg/mL.

In general, MIC50 refers to the lowest concentration that inhibits either 50% of growth or 50% of the strains tested, depending on the study. Usually IC50 stands for the midpoint of a concentration-inhibition curve. For orientation: MIC90 means the lowest concentration that inhibits either 90% of growth or 90% of the strains tested, depending on the study. Broadly, the inhibition is how much of the control response was suppressed. The LD50 is the dose expected to kill half of the subjects tested. For orientation: half-life means the time needed for the level to fall by half in the phase considered.
